Test results from patent US11319322B2, “Substituted aryl ether compound, preparation method thereof, pharmaceutical composition and use thereof” (Xiamen University, priority 2017, dated 2022).

Key:
Type in all cases: cell-based
wild-type BaF3 = test: Growth inhibition of wild-type BaF3 cells, broad-spectrum toxicity (MTS); details: Mus musculus, 48 h, read-out: WT Ba/F3 (IC50/nM)
Protocol: Growth inhibitory activity of compounds on cell lines stably transfected with kinase
The activity of compounds against kinase RET is evaluated by their effect of inhibiting growth of cell lines stably transfected with kinase CCDC6-RET-BaF3, KIF5B-RET-BaF3, and wild-type BaF3 (Proc. Natl. Acad. Sci. USA., 2006, 103, 3153-8.). The growth of the cell lines stably transfected with kinase CCDC6-RET-BaF3, KIF5B-RET-BaF3 depends on their kinase activity. If a compound can inhibit the activity of the kinase RET per se or the activity of the RET signaling pathway, the compound can inhibit the growth of BaF3 cells stably transfected with kinase. […] Therefore, a larger ratio between IC50 of a compound to wild-type BaF3 and IC50 of the compound to the cell lines stably transfected with kinase CCDC6-RET-BaF3, KIF5B-RET-BaF3 indicates better targeting.
The specific test method is given as follows:
1) Medium: DMEM (Dulbecco's modified eagle medium) or RPMI 1640 (containing 10% fetal bovine serum, 100 μg/mL ampicillin, 100 μg/mL streptomycin).
2) Reagents: MTS reaction solution (containing 2 mg/mL of MTS [3-(4,5-dimethylthiazol-2-yl)-5-(3-carboxymethoxyphenyl)-2-(4-sulfophenyl)-2H-tetrazolium, inner Salt]; 100 μg/mL PES (phenazine […])).
3) Compound test: cells stably transfected with kinase (CCDC6-RET-BaF3, KIF5B-RET-BaF3) or wild-type BaF3 cells (2×10^4 cells/well) were incubated into a 96-well culture plate, the volume of cell culture fluid was 90 μL, and then 10 μL of the compound at each gradient concentration was added (the highest concentration was 10 μM, which was diluted stepwise by ⅓, and 8 concentration points were set in total; the system contained 0.1% DMSO (dimethyl sulfoxide)). The cell plate with uniformly mixed compound was cultured in a cell culture incubator (37° C.; 5% CO2) for 48 h, then 20 μL of MTS reaction solution was added, uniformly mixed and incubated in the cell culture incubator (37° C.; 5% CO2) for 1-4 hr, OD values at 490 nm were measured by a microplate reader (VARIOSKAN FLASH, Thermo). Three parallels were set in each group of experiments, with 0.1% (a final concentration) DMSO as a negative control, and a medium without cells or compounds as a blank control. The cell growth inhibition rate was calculated by the following formula: Cell growth inhibition rate %=1−(ODexperimental group−ODblank group)/(ODnegative group−ODblank group)×100%
4) IC50 calculation: The semi-inhibitory concentration of the compound acting on cell growth was calculated using GradPad Prism 5 software according to the measured cell growth inhibition rate.

KIF5B-RET-BaF3 = target: T1, KIF5B-RET-BaF3 (Homo sapiens, UniProt P07949); test: Growth inhibition of KIF5B-RET-BaF3 cells stably transfected with kinase (MTS); details: 48 h, read-out: KIF5B-RET (IC50/nM)
T1 construct: fused on or other part: P33176 (Kinesin-1 heavy chain)
Procedure, shortened: (§1)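 BaF3 cells stably expressing CCDC6-RET or KIF5B-RET, or parental BaF3, 2×10^4 cells/well, treated 48 h at 37 °C with 8-point 1:3 dilutions from 10 μM (0.1% DMSO). MTS/PES added 1–4 h, OD490 read; inhibition versus DMSO and blank gave IC50.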

CCDC6-RET-BaF3 = target: T2, CCDC6-RET-BaF3 (Homo sapiens, UniProt P07949); test: Growth inhibition of CCDC6-RET-BaF3 cells stably transfected with kinase (MTS); details: 48 h, read-out: CCDC6-RET (IC50/nM)
T2 construct: fused on or other part: Q16204 (Coiled-coil domain-containing protein 6)
Procedure, shortened: as §1

T1 sequence (P07949 whole entry, change not shown, the tested form may be a part): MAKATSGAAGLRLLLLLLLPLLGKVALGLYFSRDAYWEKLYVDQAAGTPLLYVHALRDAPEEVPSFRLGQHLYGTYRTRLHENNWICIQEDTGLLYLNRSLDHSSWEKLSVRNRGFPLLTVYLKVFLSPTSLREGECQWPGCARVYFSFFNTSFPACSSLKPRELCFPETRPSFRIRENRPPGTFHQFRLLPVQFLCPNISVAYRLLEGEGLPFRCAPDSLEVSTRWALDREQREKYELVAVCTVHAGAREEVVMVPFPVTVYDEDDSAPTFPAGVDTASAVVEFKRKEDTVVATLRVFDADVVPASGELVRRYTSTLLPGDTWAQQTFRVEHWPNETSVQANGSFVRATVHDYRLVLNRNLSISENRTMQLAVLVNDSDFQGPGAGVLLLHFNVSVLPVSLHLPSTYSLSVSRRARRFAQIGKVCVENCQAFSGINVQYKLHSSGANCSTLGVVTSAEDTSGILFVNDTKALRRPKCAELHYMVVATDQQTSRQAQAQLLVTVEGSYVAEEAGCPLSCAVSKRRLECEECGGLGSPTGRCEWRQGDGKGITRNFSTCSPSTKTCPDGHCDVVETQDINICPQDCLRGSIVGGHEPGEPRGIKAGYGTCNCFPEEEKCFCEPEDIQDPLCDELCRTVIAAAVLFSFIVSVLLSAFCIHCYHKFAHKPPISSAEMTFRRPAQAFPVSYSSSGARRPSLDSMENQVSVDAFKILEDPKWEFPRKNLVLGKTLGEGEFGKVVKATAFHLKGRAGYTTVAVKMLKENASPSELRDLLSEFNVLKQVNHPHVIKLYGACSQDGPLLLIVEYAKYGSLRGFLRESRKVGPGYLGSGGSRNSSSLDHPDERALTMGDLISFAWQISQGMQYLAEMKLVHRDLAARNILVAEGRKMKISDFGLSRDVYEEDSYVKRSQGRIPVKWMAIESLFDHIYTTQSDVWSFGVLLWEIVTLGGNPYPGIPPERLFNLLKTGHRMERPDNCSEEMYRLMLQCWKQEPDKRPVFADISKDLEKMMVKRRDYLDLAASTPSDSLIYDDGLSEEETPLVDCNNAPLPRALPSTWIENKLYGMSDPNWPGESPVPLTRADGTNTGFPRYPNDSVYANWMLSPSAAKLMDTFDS
T2 sequence (P07949 whole entry, change not shown, the tested form may be a part): as above

| Compound | IC50 (wild-type BaF3) [nM] | GI50 (KIF5B-RET-BaF3) [nM] | GI50 (CCDC6-RET-BaF3) [nM] |
| --- | --- | --- | --- |
| Cc1ccc(C(=O)Nc2ccc(CN3CCN(C)CC3)c(C(F)(F)F)c2)cc1Oc1nc(-c2ccncc2)nc2[nH]cnc12 [I-m-1] | > 10000 | 810 | 504 |
| CN1CCN(Cc2ccc(C(=O)Nc3cc(Oc4nc(-c5ccc(O)cc5)nc5ccn(C)c45)ccc3Cl)cc2C(F)(F)F)CC1 [III-k-10] | 1440 | 2440 | 2300 |
| Cc1ccc(Oc2nc(-c3ccc(Cl)cc3)nc3cc[nH]c23)cc1NC(=O)c1ccc(CN2CCN(C)CC2)c(C(F)(F)F)c1 [III-j-11] | 1360 | 1570 | 1530 |
| CN1CCN(Cc2ccc(NC(=O)c3cccc(Oc4nc(-c5ccncc5)nc5c4ncn5C)c3)cc2C(F)(F)F)CC1 [I-l-3] | > 10000 | 5.88 | 25.2 |
| Cc1ccc(C(=O)Nc2cccc(C(F)(F)F)c2)cc1Oc1nc(-c2ccncc2)nc2nn(C)cc12 [IV-e-2] | 2220 | 8450 | 2910 |
| Cc1ccc(Oc2nc(-c3ccsc3)nc3cc[nH]c23)cc1NC(=O)c1ccc(CN2CCN(C)CC2)c(C(F)(F)F)c1 [III-j-4] | 3410 | 1720 | 1360 |
| CN1CCN(Cc2ccc(C(=O)Nc3cccc(Oc4nc(-c5ccncc5)nc5[nH]ncc45)c3)cc2C(F)(F)F)CC1 [II-h-4] | 3930 | 300 | 78.6 |
| Cc1ccc(Oc2nc(-c3ccc(O)cc3)nc3ccn(C)c23)cc1NC(=O)c1ccc(CN2CCN(C)CC2)c(C(F)(F)F)c1 [III-j-14] | 1340 | 1380 | 876 |
| CN1CCN(Cc2ccc(C(=O)Nc3cc(Oc4nc(-c5ccc(N)cc5)nc5cc[nH]c45)ccc3Cl)cc2C(F)(F)F)CC1 [III-k-11] | 1290 | 496 | 451 |
| Cc1ccc(C(=O)Nc2cc(CN3CCN(C)CC3)cc(C(F)(F)F)c2)cc1Oc1nc(-c2cccnc2)nc2ccn(C)c12 [III-q-3] | 1380 | 1400 | 1400 |
| Cc1ccc(Oc2nc(-c3ccccc3)nc3c2ncn3C)cc1NC(=O)c1ccc(CN2CCN(C)CC2)c(C(F)(F)F)c1 [I-j-2] | 2110 | 1580 | 2130 |
| CN1CCN(Cc2ccc(C(=O)Nc3cc(Oc4nc(-c5ccsc5)nc5cc[nH]c45)ccc3Cl)cc2C(F)(F)F)CC1 [III-k-7] | 3720 | 1900 | 2960 |
| Cc1ccc(C(=O)Nc2ccc(CN3CCN(C)CC3)c(C(F)(F)F)c2)cc1Oc1nc(N(C)C)nc2ccn(C)c12 [III-m-24] | 3080 | 3230 | 3120 |
| Cc1ccc(Oc2nc(-c3ccsc3)nc3ccn(C)c23)cc1NC(=O)c1ccc(CN2CCN(C)CC2)c(C(F)(F)F)c1 [III-j-8] | 1880 | 1320 | 1140 |
| CN1CCN(Cc2ccc(C(=O)Nc3cc(Oc4nc(-c5ccc(Cl)cc5)nc5cc[nH]c45)ccc3Cl)cc2C(F)(F)F)CC1 [III-k-13] | 1600 | 1550 | 1450 |
| Cc1ccc(Oc2nc(-c3ccncc3)nc3ccsc23)cc1NC(=O)c1ccc(CN2CCN(C)CC2)c(C(F)(F)F)c1 [VI-j-2] | 3940 | 17 | 3.08 |
| CN1CCN(Cc2ccc(NC(=O)c3cc(Oc4nc(-c5cccnc5)nc5ccn(C)c45)ccc3Cl)cc2C(F)(F)F)CC1 [III-o-3] | 1300 | 1330 | 1280 |
| Cc1ccc(Oc2cc(-c3ccncc3)nc3[nH]ccc23)cc1C(=O)Nc1ccc(CN2CCN(C)CC2)c(C(F)(F)F)c1 [V-n-2] | 2070 | 616 | 580 |
| CN1CCN(Cc2ccc(C(=O)Nc3cc(Oc4nc(-c5ccccc5)nc5cc[nH]c45)ccc3Cl)cc2C(F)(F)F)CC1 [III-k-17] | 2630 | 2610 | 1410 |

| Compound | IC50 (wild-type BaF3) [nM] | GI50 (KIF5B-RET-BaF3) [nM] | GI50 (CCDC6-RET-BaF3) [nM] |
| --- | --- | --- | --- |
| Cn1cnc2c(Oc3cccc(C(=O)Nc4cccc(C(F)(F)F)c4)c3)nc(-c3ccncc3)nc21 [I-d-2] | > 10000 | 5710 | 1540 |
| CN1CCN(Cc2ccc(NC(=O)c3cc(Oc4nc(-c5cccnc5)nc5ccsc45)ccc3Cl)cc2C(F)(F)F)CC1 [VI-o-1] | 3990 | 2870 | 2170 |
| Cc1ccc(C(=O)Nc2ccc(CN3CCN(C)CC3)c(C(F)(F)F)c2)cc1Oc1nc(-c2ccsc2)nc2ccn(C)c12 [III-m-18] | 3510 | 2680 | 2960 |
| CN1CCN(Cc2ccc(NC(=O)c3cccc(Oc4cc(-c5cccnc5)nc5[nH]ccc45)c3)cc2C(F)(F)F)CC1 [V-I-1] | 2070 | 1460 | 1460 |
| Cc1ccc(C(=O)Nc2cc(CN3CCN(C)CC3)cc(C(F)(F)F)c2)cc1Oc1nc(-c2ccncc2)nc2ccsc12 [VI-q-2] | 1520 | 1470 | 1520 |
| Cc1ccc(C(=O)Nc2ccc(CN3CCN(C)CC3)c(C(F)(F)F)c2)cc1Oc1nc(-c2ccc(Cl)cc2)nc2ccn(C)c12 [III-m-14] | 3190 | 2720 | 2920 |
| Cc1ccc(Oc2nc(-c3ccncc3)nc3[nH]cnc23)cc1C(=O)Nc1ccc(CN2CCN(C)CC2)c(C(F)(F)F)c1 [I-n-1] | > 10000 | 900 | 298 |
| Cc1ccc(C(=O)Nc2ccc(CN3CCN(C)CC3)c(C(F)(F)F)c2)cc1Oc1nc(-c2ccoc2)nc2cc[nH]c12 [III-m-8] | 4100 | 1710 | 1240 |
| Cc1ccc(C(=O)Nc2ccc(CN3CCN(C)CC3)c(C(F)(F)F)c2)cc1Oc1nc(-c2cccnc2)nc2ccn(C)c12 [III-m-9] | 1440 | 3050 | 1250 |
| CN1CCN(Cc2ccc(C(=O)Nc3cccc(Oc4nc(-c5cccnc5)nc5[nH]ncc45)c3)cc2C(F)(F)F)CC1 [II-h-3] | 4090 | 820 | 343 |
| Cc1ccc(C(=O)Nc2ccc(CN3CCN(C)CC3)c(C(F)(F)F)c2)cc1Oc1nc(-c2ccccc2)nc2cc[nH]c12 [III-m-3] | 3100 | 2410 | 2710 |
| Cc1ccc(C(=O)Nc2ccc(CN3CCN(C)CC3)c(C(F)(F)F)c2)cc1Oc1nc(N2CCN(C)CC2)nc2ccn(C)c12 [III-m-23] | 464 | 477 | 515 |
| Cc1ccc(Oc2nc(-c3ccc(O)cc3)nc3cc[nH]c23)cc1NC(=O)c1ccc(CN2CCN(C)CC2)c(C(F)(F)F)c1 [III-j-13] | 4150 | 2400 | 1720 |
| Cc1ccc(Oc2nc(-c3ccc(O)cc3)nc3c2ncn3C)cc1NC(=O)c1ccc(CN2CCN(C)CC2)c(C(F)(F)F)c1 [I-j-4] | 1790 | 1610 | 1010 |
| Cc1ccc(Oc2nc(-c3ccc(Cl)cc3)nc3c2ncn3C)cc1NC(=O)c1ccc(CN2CCN(C)CC2)c(C(F)(F)F)c1 [I-j-3] | 1770 | 1430 | 1420 |
| CN1CCN(Cc2ccc(C(=O)Nc3cc(Oc4nc(-c5ccsc5)nc5ccn(C)c45)ccc3Cl)cc2C(F)(F)F)CC1 [III-k-8] | 3990 | 3580 | 3460 |
| Cc1ccc(C(=O)Nc2ccc(CN3CCN(C)CC3)c(C(F)(F)F)c2)cc1Oc1nc(-c2cccc(Cl)c2)nc2ccn(C)c12 [III-m-13] | 3390 | 3000 | 3510 |
| CN1CCN(Cc2ccc(C(=O)Nc3cc(Oc4nc(-c5ccoc5)nc5ccn(C)c45)ccc3Cl)cc2C(F)(F)F)CC1 [III-k-6] | 2470 | 1010 | 990 |
| Cc1ccc(Oc2nc(-c3ccccc3)nc3ccn(C)c23)cc1NC(=O)c1ccc(CN2CCN(C)CC2)c(C(F)(F)F)c1 [III-j-7] | 2560 | 1370 | 1270 |
